# Experiments:
# IL-6 = system: IL-6
# Procedure: GLA was formulated in DPPC (1,2-dipalmitoyl-sn-glycero-3-phosphocholine) as GLA:DPPC 1:2 (M:M) in Millipore (sterile) water. Animals were sedated with ketamine (5 mg/kg to 10 mg/kg)/dexmedetomidine (0.01 mg/kg to 0.016 mg/kg), IM (intramuscularly), while in their cage. Once sedated, they were brought into the laboratory and placed onto a circulating water heating pad (Gaymar). Sublingual (right side) and left cheek pouch mucosal brushings were taken 15 minutes prior to dosing using Copan FLOQSwabs™ and placed into RLT buffer (QIAmp Minikit Plus, Qiagen), vortexed and immediately frozen on dry ice. Sublingual dosing of GLA (100 μl dosed via syringe) was performed under the right side of the animals tongue and allowed to absorb into the mucosa for three minutes. Further sublingual and cheek brushings were obtained at 6 hr, 24 hr and 48 hr post dosing.
# RNA processing was performed from the cheek and sublingual swabs using a QIAmp Minikit Plus (Qiagen) which includes a gDNA (genomic DNA) eliminator column. Gene expression was quantified using the Comparative CT Method, which calculates the relative gene expression quantitation between a target gene and an endogenous control. All target genes were quantitated relative to the expression of the housekeeping gene ARL1. Using the relative expression, the fold of baseline expression was calculated as [(Relative gene expression at time point of interest)/(Baseline relative gene expression)].
# [1] = system: Ova-specific OT-II TcR transgenic T cells; test: Antigen-specific OT-II T cell proliferation after sublingual administration (cell-tracker dye, flow cytometry); type: in vivo, mice; details: GLA 0.2 μg, OVa323-339 peptide 10 μg, four days later (FIGS. 4A, 4C, 4E)
# Procedure: Ova-specific OT-II TcR transgenic T cells were labeled with cell-tracker violet dye and adoptively transferred into syngeneic wild type mice. Mice then received sublingual administration of GLA (0.2 μg) alone (FIGS. 4A and 4B), OVa323-339 peptide (10 μg) alone (FIGS. 4C and 4D), or GLA co-administered with Ova peptide (FIGS. 4E and 4F). Four days later, the draining cervical lymph nodes (FIGS. 4A, 4C, and 4E) and spleen (FIGS. 4B, 4D, and 4F) were removed and OT-II T cell proliferation (via the decrease in cell-tracker dye fluorescence) was measured by flow cytometry.
# Methods. Sublingual administration was performed as described above in Example 1.
# Formulations of Ova peptide and/or GLA included methylcellulose as described in Example 1. Mixtures of methylcellulose+Ova peptide, and methylcellulose+Ova peptide+GLA were prepared the day before dosing.
# Ova-specific OT-II TcR transgenic T cells were labeled with cell-tracker violet dye and adoptively transferred into syngeneic wild type mice. Mice then received sublingual administration of GLA (0.2 μg, 0.02 μg or 0.002 μg) co-administered with OVa323-339 peptide or peptide without GLA (0 mg). Four days later, cervical lymph nodes were removed and OT-II T cell proliferation (via the decrease in cell-tracker dye fluorescence) was measured by flow cytometry.
# [2] = six hours after sublingual administration
Compound,IL-6 expression 24 hours after sublingual administration (IL-6; 24 hours after sublingual administration),"duration of local action within the oral cavity (IL-6; current formulation GLA:DPPC 1:2, sublingual) [days]",IL-6 in brushings from the cheek (IL-6; [2]),IL-6 in the blood (IL-6; [2]),"IL-6 expression in sublingual mucosal brushings (IL-6; six hours after sublingual administration, 3 different doses of GLA)",antigen-specific T cell proliferation in the draining cervical lymph nodes [1]
"CCCCCCCCCCCCCC(=O)O[C@H](CCCCCCCCCCC)CC(=O)O[C@@H]1[C@@H](NC(=O)C[C@H](CCCCCCCCCCC)OC(=O)CCCCCCCCCCCCC)[C@H](OC[C@H]2O[C@H](O)[C@H](NC(=O)C[C@H](O)CCCCCCCCCCC)[C@@H](OC(=O)C[C@H](O)CCCCCCCCCCC)[C@@H]2O)O[C@H](CO)[C@H]1OP(=O)(O)O [GLA, Glucopyranosyl Lipid A]",not detected,≤ 1,not detected,not detected,dose-dependent expression of IL-6,not
"OVa323-339 peptide: Ova peptide antigen recognised by OT-II TcR transgenic T cells (KISQAVHAAHAEINEAG; UniProt P01012 323-339, looked up, fragment)",–,–,–,–,–,not

# — patent publication US20160310589A1, “Glucopyranosyl Lipid A and Allergen Formulations For Sublingual Administration” (Sanofi, priority 2015, published 2016)
